Laboratory results: US20230120564A1, “PYRIDO[3,4-D]PYRIMIDINE DERIVATIVE AND THERAPEUTIC PHARMACEUTIC COMPOSITION COMPRISING SAME” (KOREA INSTITUTE OF SCIENCE AND TECHNOLOGY, priority 2020, published 2023)

Columns and labels:
[1] = system: Ba/F3 (parental); test: Inhibition of cell proliferation (GI50); type: cell-based; details: Mus musculus, BaF3; Ba/F3 (parental) cell line; read-out: Proliferation inhibitory activity (GI50, μM) Ba/F3 (parental)
Experimental: The inhibitory activities of the compounds of the present invention against the proliferation of the Ba/F3 (parental) cell line were measured and the GI50 values thereof were calculated.

[2] = system: Ba/F3 (N-Ras G12D); test: Inhibition of cell proliferation (GI50); type: cell-based; details: Mus musculus, BaF3; mt-NRAS (G12D) Ba/F3 cell line; read-out: Proliferation inhibitory activity (GI50, μM) Ba/F3 (N-Ras G12D)
Experimental: (§1) The inhibitory activities of the compounds of the present invention against the proliferation of the mt-NRAS (G12D) Ba/F3 and […] (mt-NRAS) cell lines were measured and the GI50 values thereof were calculated.

[3] = system: OCI-AML3 (N-Ras Q61L); test: Inhibition of cell proliferation (GI50); type: cell-based; details: Homo sapiens, OCI-AML-3; OCI-AML3 cell line; read-out: Proliferation inhibitory activity (GI50, μM) OCI-AML3 (N-Ras Q61L)
Experimental: as §1
Referring to the results in Table 2, it can be seen that the compound of the present invention has inhibitory activity against the proliferation of the human acute myeloid leukemia cell line (OCI-AML3) having the NRAS mutant gene, and the effect thereof is remarkable. Therefore, it can be seen that the compound of the present invention is particularly effective as a therapeutic agent for acute myeloid leukemia (AML).

[4] = target: ACK1 (Homo sapiens, UniProt Q07912); test: Kinase inhibitory activity, IC50; type: biochemical
Experimental: (§2) The inhibitory activities of the compounds of the present invention against two kinases, GCK and ACK1, were measured, and the IC50 values thereof were calculated. As a control, the following compound GNF7 was used.

[5] = target: T1, GCK (Homo sapiens, UniProt Q12851); test: Kinase inhibitory activity, IC50; type: biochemical
T1 sequence (Q12851 1-820): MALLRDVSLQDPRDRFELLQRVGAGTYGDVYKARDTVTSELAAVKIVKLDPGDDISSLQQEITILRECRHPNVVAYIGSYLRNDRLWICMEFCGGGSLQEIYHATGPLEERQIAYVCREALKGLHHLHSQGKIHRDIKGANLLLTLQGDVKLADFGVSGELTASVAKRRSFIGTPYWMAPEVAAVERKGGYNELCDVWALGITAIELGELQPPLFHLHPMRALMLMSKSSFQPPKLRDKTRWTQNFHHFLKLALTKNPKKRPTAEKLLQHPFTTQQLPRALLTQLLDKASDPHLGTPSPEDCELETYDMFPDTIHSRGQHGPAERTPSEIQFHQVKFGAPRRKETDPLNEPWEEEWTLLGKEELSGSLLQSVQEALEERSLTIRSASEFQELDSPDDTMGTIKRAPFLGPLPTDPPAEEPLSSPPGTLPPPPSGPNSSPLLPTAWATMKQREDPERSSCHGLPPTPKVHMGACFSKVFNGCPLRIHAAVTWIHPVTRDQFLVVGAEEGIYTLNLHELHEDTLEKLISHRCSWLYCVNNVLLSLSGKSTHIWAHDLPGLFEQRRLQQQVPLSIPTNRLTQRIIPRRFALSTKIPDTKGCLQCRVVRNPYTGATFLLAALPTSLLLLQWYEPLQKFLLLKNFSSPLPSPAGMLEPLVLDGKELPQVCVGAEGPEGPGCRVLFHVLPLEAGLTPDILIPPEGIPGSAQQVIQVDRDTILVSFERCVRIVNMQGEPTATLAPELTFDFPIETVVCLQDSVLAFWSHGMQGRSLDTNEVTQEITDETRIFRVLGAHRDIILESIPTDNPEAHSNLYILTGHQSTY
Experimental: as §2

ACK1, sequence (Q07912 whole entry): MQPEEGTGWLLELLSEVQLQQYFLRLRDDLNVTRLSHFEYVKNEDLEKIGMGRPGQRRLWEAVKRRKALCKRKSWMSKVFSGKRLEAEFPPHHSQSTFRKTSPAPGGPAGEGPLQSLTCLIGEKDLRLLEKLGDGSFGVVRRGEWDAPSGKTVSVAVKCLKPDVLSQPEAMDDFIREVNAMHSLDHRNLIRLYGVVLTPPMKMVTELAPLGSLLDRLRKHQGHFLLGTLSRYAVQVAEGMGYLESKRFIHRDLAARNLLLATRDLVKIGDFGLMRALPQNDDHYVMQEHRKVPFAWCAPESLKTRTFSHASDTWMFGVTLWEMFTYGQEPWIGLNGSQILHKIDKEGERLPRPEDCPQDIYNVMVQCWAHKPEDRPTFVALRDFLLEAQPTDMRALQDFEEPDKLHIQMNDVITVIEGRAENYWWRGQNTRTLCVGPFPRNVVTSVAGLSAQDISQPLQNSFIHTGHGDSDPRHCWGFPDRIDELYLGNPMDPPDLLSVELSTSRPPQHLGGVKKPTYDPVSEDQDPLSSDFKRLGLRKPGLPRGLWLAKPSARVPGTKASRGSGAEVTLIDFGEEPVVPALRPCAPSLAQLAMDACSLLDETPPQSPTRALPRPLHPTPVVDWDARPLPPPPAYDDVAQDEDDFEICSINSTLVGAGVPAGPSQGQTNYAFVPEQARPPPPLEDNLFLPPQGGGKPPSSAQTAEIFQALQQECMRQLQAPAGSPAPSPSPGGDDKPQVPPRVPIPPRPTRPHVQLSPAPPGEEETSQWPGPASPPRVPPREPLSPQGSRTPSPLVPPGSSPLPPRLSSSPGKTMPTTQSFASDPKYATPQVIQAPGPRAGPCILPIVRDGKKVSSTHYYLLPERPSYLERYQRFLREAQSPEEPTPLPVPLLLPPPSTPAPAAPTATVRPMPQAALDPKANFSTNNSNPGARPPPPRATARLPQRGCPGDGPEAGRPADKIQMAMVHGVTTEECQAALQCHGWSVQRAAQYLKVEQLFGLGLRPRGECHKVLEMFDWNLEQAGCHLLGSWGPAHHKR

Structure (SMILES) | GI50 [2] [µM] | GI50 [3] [µM] | IC50 [4] [nM] | IC50 [5] [nM] | GI50 [1] [µM]
COc1nc(-c2cc(NC(=O)c3cccc(C(F)(F)F)c3)ccc2C)cc2cnc(Nc3ccc(C)nc3)nc12 [Compound No. 8, N-(3-(8-methoxy-2-((6-methylpyridin-3-yl)amino)pyrido[3,4-d]pyrimidin-6-yl)-4-methylphenyl)-3-(trifluoromethyl)benzamide] | 0.5 to 3 | < 0.5 | – | – | 3 to 5
CCc1nc(-c2cc(NC(=O)c3cccc(C(F)(F)F)c3)ccc2C)cc2cnc(Nc3ccc(C)nc3)nc12 [Compound No. 3, N-(3-(8-ethyl-2-((6-methylpyridin-3-yl)amino)pyrido[3,4-d]pyrimidin-6-yl)-4-methylphenyl)-3-(trifluoromethyl)benzamide] | 0.5 to 3 | 0.5 to 3 | 100 to 1000 | > 10000 | > 5
Cc1ccc(Nc2ncc3c(n2)N(C)C(=O)N(c2cc(NC(=O)c4cccc(C(F)(F)F)c4)ccc2C)C3)cn1 [GNF 7, reference compound] | 0.5 to 3 | < 0.5 | < 100 | < 100 | 3 to 5
Cc1ccc(Nc2ncc3cc(-c4cc(NC(=O)c5cc(N6CCOCC6)cc(C(F)(F)F)c5)ccc4C)ncc3n2)cn1 [Compound No. 14, N-(4-methyl-3-(2-((6-methylpyridin-3-yl)amino)pyrido[3,4-d]pyrimidin-6-yl)phenyl)-3-morpholino-5-(trifluoromethyl)benzamide] | < 0.5 | < 0.5 | – | – | 0.5 to 3
Cc1ccc(NC(=O)c2cccc(C(F)(F)F)c2)cc1-c1cc2cnc(NCCO)nc2cn1 [Compound No. 18, N-(3-(2-((2-hydroxyethyl)amino)pyrido[3,4-d]pyrimidin-6-yl)-4-methylphenyl)-3-(trifluoromethyl)benzamide] | < 0.5 | < 0.5 | 100 to 1000 | 100 to 1000 | > 5
Cc1ccc(Nc2ncc3cc(-c4cc(NC(=O)c5cccc(C(F)(F)F)c5)ccc4C)ncc3n2)c(C)n1 [Compound No. 24, N-(3-(2-((2,6-dimethylpyridin-3-yl)amino)pyrido[3,4-d]pyrimidin-6-yl)-4-methylphenyl)-3-(trifluoromethyl)benzamide] | < 0.5 | < 0.5 | – | – | > 5
Cc1ccc(Nc2ncc3cc(-c4cc(NC(=O)c5cc(-n6cnc(C)c6)cc(C(F)(F)F)c5)ccc4C)ncc3n2)cn1 [Compound No. 13, 3-(4-methyl-1H-imidazol-1-yl)-N-(4-methyl-3-(2-((6-methylpyridin-3-yl)amino)pyrido[3,4-d]pyrimidin-6-yl)phenyl)-5-(trifluoromethyl)benzamide] | < 0.5 | < 0.5 | – | – | > 5

Now from value to molecule, other results behind:

GI50 [2] [µM] | GI50 [3] [µM] | IC50 [4] [nM] | IC50 [5] [nM] | Structure (SMILES) | GI50 [1] [µM]
< 0.5 | < 0.5 | – | – | Cc1ccc(Nc2ncc3cc(-c4cc(NC(=O)c5ccc(CN6CCOCC6)c(C(F)(F)F)c5)ccc4C)ncc3n2)cn1 [Compound No. 12, N-(4-methyl-3-(2-((6-methylpyridin-3-yl)amino)pyrido[3,4-d]pyrimidin-6-yl)phenyl)-4-(morpholinemethyl)-3-(trifluoromethyl)benzamide] | > 5
< 0.5 | < 0.5 | 100 to 1000 | > 10000 | Cc1ccc(Nc2ncc3cc(-c4cc(NC(=O)c5cccc(C(F)(F)F)c5)ccc4C)nc(Cl)c3n2)cn1 [Compound No. 1, N-(3-(8-chloro-2-((6-methylpyridin-3-yl)amino)pyrido[3,4-d]pyrimidin-6-yl)-4-methylphenyl)-3-(trifluoromethyl)benzamide] | > 5
< 0.5 | < 0.5 | – | – | Cc1ccc(NC(=O)c2cccc(C(F)(F)F)c2)cc1-c1cc2cnc(N)nc2cn1 [Compound No. 17, N-(3-(2-aminopyrido[3,4-d]pyrimidin-6-yl)-4-methylphenyl)-3-(trifluoromethyl)benzamide] | > 5
< 0.5 | < 0.5 | – | – | Cc1ccncc1Nc1ncc2cc(-c3cc(NC(=O)c4cccc(C(F)(F)F)c4)ccc3C)ncc2n1 [Compound No. 23, N-(4-methyl-3-(2-((4-methylpyridin-3-yl)amino)pyrido[3,4-d]pyrimidin-6-yl)phenyl)-3-(trifluoromethyl)benzamide] | < 0.5
< 0.5 | 0.5 to 3 | – | – | C=Cc1nc(-c2cc(NC(=O)c3cccc(C(F)(F)F)c3)ccc2C)cc2cnc(Nc3ccc(C)nc3)nc12 [Compound No. 2, N-(4-methyl-3-(2-((6-methylpyridin-3-yl)amino)-8-vinylpyrido[3,4-d]pyrimidin-6-yl)phenyl)-3-(trifluoromethyl)benzamide] | 3 to 5
< 0.5 | < 0.5 | 100 to 1000 | 100 to 1000 | Cc1ccc(NC(=O)c2cccc(C(F)(F)F)c2)cc1-c1cc2cnc(NC3CC3)nc2cn1 [Compound No. 19, N-(3-(2-(cyclicpropylamino)-pyrido[3,4-d]pyrimidin-6-yl)-4-methylphenyl)-3-(trifluoromethyl)benzamide] | 0.5 to 3
